# “Also recorded” adds a separate entry of the source.
# What was measured:
# HER-2/neu ECD = assay: Shedding of HER-2/neu ECD into conditioned media, Western blot with anti-neu (N), BT474 cells; assay type: cell-based, human
# Protocol: Cells were treated for 24 hrs in serum-free medium with control vehicle or with 500 nM of the phorbol ester TPA and 50 μM chloroquine. In the top panel (FIG. 4A), 5 ml of conditioned media was concentrated 100 fold, denatured under nonreducing conditions, and aliquots normalized to cell extract protein were analyzed by western blotting with anti-neu (N) monoclonal antibody at 1 μg/ml. In the lower panel (FIG. 4B), 20 μg of cell proteins were analyzed by Western blotting using anti-neu (C). The data shown in FIG. 4 are representative of three replicate experiments.
# (§1) BT474 cells in serum-free medium were treated for 24 hrs with the control vehicle or with 1, 10, 20, and 40 μM TAPI (a gift from Immunex, Seattle, Wash.). In the top panel (FIG. 5A), the concentrated, conditioned media, normalized to the amount of cell extract, were analyzed by western blotting with anti-neu (N). […] In the lower panel (FIG. 5B), 20 μg of cell proteins were analyzed by Western blotting using anti-neu (C).
# Tyrosine phosphorylation of tyrosine kinase receptors generally indicates their activation in signaling (Hynes et al., Biochem. Biophys. Acta 1198:165-184, 1994; and Dougall et al., Oncogene 9: 2109-2123, 1994). The tyrosine phosphorylation of p95HER-2, and its subcellular location were examined by fractionation of BT474 cell extracts into a soluble fraction and a particulate fraction. Each fraction was immunoprecipitated with anti-neu (C) and then subjected to Western blot analysis using monoclonal antibodies against phosphotyrosine. […]
# To determine whether p95HER-2 and ECD were coordinately regulated, TPA (500 nM) and chloroquine (50 μM) or the control vehicle were added to the culture media of BT474 and SKOV3 cells. […] At 24 hrs, the ECD levels in the extracellular media and p95HER-2 levels in the cell extract were analyzed. […]
# p95HER-2 [1] = assay: Cell level of truncated p95HER-2, Western blot of cell extracts with anti-neu (C), BT474 cells; assay type: cell-based, human
# Protocol: as §1, with “(C). […]” for “(C).”
# Therefore, effects of different concentrations of the hydroxamic acid, TAPI (Mohler et al., Nature 370:218-220, 1994) was tested on shedding of HER-2/neu ECD and on cell levels of p95.
# p185HER-2/neu = p185HER-2/neu level in treated cells, Western blot with anti-neu (C); assay type: cell-based, human; conditions: cells treated with TAPI
# Protocol: BT474 cells in serum-free medium were treated for 24 hrs with the control vehicle or with 1, 10, 20, and 40 μM TAPI (a gift from Immunex, Seattle, Wash.). In the top panel (FIG. 5A), the concentrated, conditioned media, normalized to the amount of cell extract, were analyzed by western blotting with anti-neu (N). Similar results were obtained when 5 μg of protein from the conditioned media from each culture were analyzed.
# This example illustrates that a metalloprotease inhibitor depressed levels of p95HER-2 and ECD from BT474 cells. Shedding of diverse transmembrane proteins is inhibited by hydroxamic acid-based compounds, which are potent metalloproteinase inhibitors (McGeehan et al., Nature 370:561, 1994; Mohler et al., Nature 370:218-220, 1994; and Arribas et al., J. Biol. Chem. 271:11376-11382, 1996). Therefore, effects of different concentrations of the hydroxamic acid, TAPI (Mohler et al., Nature 370:218-220, 1994) was tested on shedding of HER-2/neu ECD and on cell levels of p95. TAPI (0 to 40 μM) was added to cultured BT474 cells for 24 hrs, the ECD in concentrated conditioned media was analyzed by immunoblotting with anti-neu (N), and p95HER-2 and p185HER-2 polypeptides were examined in cell extracts using an anti-neu (C) monoclonal antibody. […] A residual amount of about 10% of the ECD resisted inhibition by even 40 μM TAPI.
# p95HER-2 [2] = assay: p95HER-2 level in a further, unnamed cell line treated with TAPI; assay type: cell-based
# [3] = 1 μM TAPI, three separate experiments
# [4] = BT474 cells, 24 hrs, 1, 10, 20 and 40 μM TAPI
substance,measurement,setting,value
TAPI,inhibition of ECD level,HER-2/neu ECD; [3],≤ 50%
same,effect on ECD level,HER-2/neu ECD; [4],inhibited; also recorded: suppressed
same,production of ECD at 1 μM TAPI,"HER-2/neu ECD; BT474 cells, serum-free medium, 24 hrs, 1 μM",partially inhibited
same,inhibition of p95HER-2 level,p95HER-2 [1]; [3],≤ 50%
same,level of truncated p95HER-2 at 1 μM TAPI,"p95HER-2 [1]; BT474 cells, 24 hrs, 1 μM",little or no effect
same,effect on p95HER-2 level,p95HER-2 [1]; [4],inhibited; also recorded: suppressed
same,change in p185HER-2/neu levels,p185HER-2/neu,No change
same,effect on p95HER-2 in a cell line,p95HER-2 [2],increased

# Source: US8093216B2, “Method of treating cancer by inhibition of p95HER-2 production” (Oregon Health & Science University, priority 1998, dated 2012)
